The numbers were not newly measured in patent US9034914B2, “Pharmaceutical composition comprising rotigotine salts (acid or Na), especially for iontophoresis” (UCB Pharma GmbH, priority 2009, dated 2015), which cites them from elsewhere.

Counter-ions that a name gives are not always drawn. Like-named read-outs stand apart in the source and are kept apart here. Marks after values point to notes of the source that are not given here.

For series [1] the following is noted: passive delivery, patch size 10 cm^2, estimated to deliver 2 mg in 24 h; cited from earlier work.
The conditions of series [2]: cited from earlier work; for Solubility: adapted from Nugroho et al.
For series [3] the following is noted: pH 5; cited from earlier work.
For series [4] the following is noted: 20 cm^2 patch containing 10 mg rotigotine hydrochloride, TTS of WO 94/07468; cited from earlier work.

Consider `CCCN(CCc1cccs1)[C@H]1CCc2c(O)cccc2C1` [rotigotine, (−)-5,6,7,8-tetrahydro-6-[propyl-[2-(2-thienyl)ethyl]-amino]-1-naphthalenol], for which, in series [1], the maximum plasma concentration (Cmax) was 0.215 ng/mL and the “time of maximum plasma concentration” value is given as 16 h.

As a reminder, the Solubility is how much of the substance goes into solution per volume. On to `CCCN(CCc1cccs1)[C@H]1CCc2c(O)cccc2C1` [rotigotine.HCl, rotigotine hydrochloride], for which, in series [2] (68 mM NaCl, results by Nugroho), the “effect of addition of NaCl on solubility” value is reported as “reduced tremendously”. The Solubility in series [2] (pH 4, 68 mM NaCl) was 6.75 µmol/mL; in series [2] (pH 4, no NaCl), 24.39^a,b μmol/ml; in series [2] (pH 5, 68 mM NaCl), 6.35 µmol/mL; in series [2] (pH 5, no NaCl, hydrochloride), 22.4 µmol/mL; in series [2] (pH 5, no NaCl, listed as Rotigotine•HCl, hydrochloride), 22.45^a,b μmol/ml; in series [2] (pH 6, 68 mM NaCl), 6.52 µmol/mL. Besides, in series [2] (pH 6, no NaCl), the Solubility is 15.87^b μmol/ml. The maximum solubility in series [2] (pH 5, in the presence of 0.07 molar NaCl, previous attempts) was 6.3 mM. Also, the maximum iontophoretic flux in series [3] is listed as 80.2±14.4 nmol·cm^−2·h^−1. In series [3], the transport number was 0.4%. Also, in series [4], the “average drug plasma levels” value was “around 0.15 ng/mL”.
